Patent publication US9226904B2, “Pharmacological treatment of Parkinson's disease” (The United States of America as Represented by the …, priority 2006, dated 2016)

Experiments:
[1] = system: hemi-lesioned 6-OHDA-treated rat; experiment: Rotational activity (contralateral turns) in hemi-lesioned 6-OHDA-treated rat model of Parkinson's disease; type: in vivo; settings: for contralateral turning after D1 agonist SKF 38393 (0.1 mg/kg) on test day: 14 days R(+)-8-OHDPAT 0.3 mg/kg or vehicle, then same plus SKF 38393 0.1 mg/kg on test day, observed 3 hr, FIG. 2, p<0.005
Method: Rats were rendered parkinsonian on one side of the brain by unilateral destruction of nigrostriatal dopamine neurons using the selective neurotoxin 6-OHDA and stereotaxic procedures. Animals were allowed to recover for at least 2 weeks following this procedure. Animals were then screened for efficacy of the lesion by subcutaneous injection of L-DOPA (25 mg/kg) plus the decarboxylase inhibitor benserazide (6.25 mg/kg) followed by assessment of motor activity.
Anti-parkinsonian action in the hemi-lesioned 6-OHDA-treated rat model was assessed by the elicitation of rotational activity to the side opposite the lesioned hemisphere (contralateral turns) following drug treatment. The number of contralateral turns was assessed by videotape recording of animals and counting the number of turns.
One group (controls) received a daily subcutaneous injection of vehicle (0.9% saline containing 0.1 mg/kg ascorbate; 1 ml/kg) for 14 days and the other group (8-OHDPAT) received a daily subcutaneous injection of R(+)-8-OHDPAT (0.3 mg/kg in 1 ml/kg volume) for 14 days. Beginning on day 15, both groups of rats were tested for motor activity and dyskinetic activity in response to the D1 receptor partial agonist SKF 38393 or the D2 receptor agonist quinpirole. Such testing was carried out in a randomized fashion with different doses of dopamine agonist being tested every 4th day (e.g. 3 days between dopamine agonist administration). Throughout this testing phase the control group continued to receive daily injection of vehicle and the 8-OHDPAT group continued to receive daily injection of 0.3 mg/kg R(+)-8-OHDPAT. On days when dopamine agonists were tested the vehicle or R(+)-8-OHDPAT was administered simultaneously with the dopamine agonist.

[2] = system: hemi-lesioned 6-OHDA-treated rat; experiment: Observer assessment of motor dyskinesias (dyskinesia index) during rotational test; type: in vivo; settings: repeated R(+)-8-OHDPAT administration, 3 hr rotational test
Method: Observer assessment of motor dyskinesias was carried out be viewing the videotaped recording of rats during testing for rotational activity. A dyskinesia score was generated at 10 minute intervals throughout the course of the rotational test (generally 3 hr). Dyskinesia scores were based on the following scale: 0-no evidence of abnormal activity; 1 mild, intermittent forelimb dyskinesia; 2-severe, more persistent forelimb dyskinesia associated with animal directing activity toward forelimb; 3-severe limb and axial dyskinesia associated with loss of balance and consistent “barrel-rolling” activity. The dyskinesia scores that were obtained were averaged to generate a dyskinesia index.
The experiments described in this example were conducted as described above. A dyskinesia index for each animal was determined during a 3 hr rotational test.

ΔFosB = experiment: Immunoblot of ΔFosB in denervated striatum of unilateral 6-OHDA-lesioned rats; type: in vivo, rat; settings: once daily for 15 days; L-DOPA 25 mg/kg plus 6.25 mg/kg benserazide; SKF 38393 1 mg/kg; R(+)-8-OHDPAT 0.3 mg/kg concomitant with SKF 38393; FIG. 9; p<0.05
Method: To test whether a drug-related rise in ΔFosB contributes to dyskinesias elicited by repeated L-DOPA treatment, ΔFosB levels were assessed by immunoblotting. FIG. 8 provides an image of a typical blot. […] Thus a significant target of the treatments of the present invention is contemplated to be ΔFosB in the striatum. Even so, knowledge of the mechanism(s) is not necessary in order to make and use the present invention.

[3] = system: hemi-lesioned 6-OHDA-treated rat; experiment: Rotational activity (contralateral turns) in hemi-lesioned 6-OHDA-treated rat model of Parkinson's disease; type: in vivo; settings: for rotational response on day 15 of once daily administration: SKF 38393 0.1, 0.3 or 1.0 mg/kg with vehicle or with R(+)-8-OHDPAT 0.3 mg/kg, once daily 15 days, FIG. 10; for direction of turning elicited: daily s.c. dosing, R(+)-8-OHDPAT 0.3 mg/kg
[4] = coadministration with levodopa; Bibbiani et al., Neurology 2001; cited from earlier work
[5] = L-DOPA 10 mg/kg + 6.25 mg/kg benserazide, FIG. 1

Compound | contralateral turning after D1 agonist SKF 38393 (0.1 mg/kg) on test day [1] | ΔFosB in the denervated striatum (ΔFosB) | rotational response on day 15 of once daily administration [3] | direction of turning elicited [3, 5] | further results
CCCN(CCC)C1CCc2cccc(O)c2C1 (stereo not drawn) [R(+)-8-OHDPAT, 8-hydroxy-2-(di-n-propylamino)tetralin] | pronounced contralateral turning | prevents the D1 agonist-induced rise in ΔFosB | significantly greater contralateral turning response | ipsilateral turning could be elicited | anti-parkinsonian action (contralateral turning), chronic and concomitant versus acute administration ([1]; 14 day pretreatment with R(+)-8-OHDPAT 0.3 mg/kg plus concomitant R(+)-8-OHDPAT+SKF 38393 0.3 mg/kg on test day, FIG. 4, p<0.001): significant anti-parkinsonian action greater than all other treatment groups; contralateral turning after D2 agonist quinpirole (0.05 mg/kg) on test day ([1]; 14 days R(+)-8-OHDPAT 0.3 mg/kg, then R(+)-8-OHDPAT plus quinpirole 0.05 mg/kg on test day, vs vehicle plus quinpirole, 3 hr, FIG. 3, p<0.001): significantly greater contralateral turning; dyskinetic behavior (dyskinesia index) elicited by SKF 38393 (3.0 mg/kg) ([2]; FIG. 5): reduced dyskinetic behavior; dyskinetic behavior (dyskinesia index) elicited by quinpirole (0.05 mg/kg) ([2]; FIG. 6): reduced dyskinetic behavior; rotational response, pre-screened (primed) versus non-pre-screened (unprimed) rats ([3]; 15 days once daily R(+)-8-OHDPAT 0.3 mg/kg plus SKF 38393 0.3 mg/kg, FIG. 11): no significant difference
Fc1ccc(-c2cncc(CNC[C@H]3CCc4ccccc4O3)c2)cc1 [sarizotan] |  |  |  |  | motor complications of levodopa treatment [4]: reduced motor complications
N[C@@H](Cc1ccc(O)c(O)c1)C(=O)O [L-DOPA, levodopa] |  | significant increase |  | almost exclusively contralateral turning | contralateral turning on Day 15 relative to Day 1 ([3]; repeated daily s.c. dosing, L-DOPA 10 mg/kg + 6.25 mg/kg benserazide, R(+)-8-OHDPAT 0.3 mg/kg where given, FIG. 1): approximately 3 fold; coordination of the turning response (observed, not quantified) ([3]; upon repeated daily administration, L-DOPA 10 mg/kg + benserazide, R(+)-8-OHDPAT 0.3 mg/kg where given): progressively more uncoordinated
COc1ccccc1N1CCN(CCN(C(=O)C2CCCCC2)c2ccccn2)CC1 [WAY 100635] |  |  |  |  | effect of 5-HT1A antagonist pretreatment on R(+)-8-OHDPAT-facilitated anti-parkinsonian action of SKF 38393 ([1]; WAY 100635 0.1 mg/kg on test day prior to R(+)-8-OHDPAT 0.3 mg/kg plus SKF 38393 0.3 mg/kg, at least 14 days daily R(+)-8-OHDPAT, FIG. 7): blocked the facilitating effects
Oc1cc2c(cc1O)C(c1ccccc1)CNCC2 (stereo not drawn) [SKF 38393] | no contralateral turning | significant increase | little net contralateral turning |  | 
